From patent publication US20260097047A1, “Small molecule inhibitors of the ribosome biogenesis factor NVL2” (Board of Regents, The University of Texas System, priority 2023, published 2026)

Columns and labels:
Type in all cases: cell-based, human
HCT116 NVL^R403W cells = assay: Cell viability counter-screen in compound-resistant HCT116 NVL^R403W cells; details: Homo sapiens, HCT-116; NVL^R403W knock-in
Description: Design and synthesis of benzothiazepine-based NVL inhibitors. […] Analogs were evaluated against the colorectal cancer cell line HCT116, and counter-screened against a compound resistant NVL2^R403W clone. Cytotoxicity in wild-type HCT116 was determined. […] Initial SAR focused on exploring the replacement of the furan ring of initial dibenzothiazepinone hit MM017. We first explored a wide variety of mono- and di-substituted phenyl rings, including a broad spectrum of functionality (F, Cl, alkyl, alkoxy, fluoroalkoxy, CN, formamide, S(O) Me, carboxyl, . . . ). […]
HCT116 cells were transfected with TransIT-LT (Mirus #MIR2304) according to manufacturer's protocol with a guide RNA (either mock or NVL targeting) in the px330 vector (Addgene, #42230), and 10 nM single stranded deoxyoligonucleotide encoding a specific NVL mutation (see below for specific sequences). […] The resulting cells were evaluated by cresyl violet staining or collected and the relevant NVL mutations were analyzed by either amplicon or sanger sequencing.
Cell viability assay: In 96-well assay plates (Corning #2903), 2,000 cells were plated per well in 100 μL of medium and allowed to adhere overnight. […] Luminescence (CellTiter-Glo) was recorded using a Synergy 2 microplate reader (BioTek). […]

HCT116 cells = assay: Genome-wide CRISPR/Cas9 knockout screen in HCT116 cells; details: 1 μM pulsed intermittently over 21 days
Excerpt: To better understand how inhibition of NVL by MM017 leads to cell death, we performed a genome wide pooled CRISPR/Cas9 knockout screen in HCT116 cells using a library of guide RNAs targeting 19,114 genes. Cells were pulsed intermittently with vehicle or MM017 over 21 days, at which point MM017 treated cells had undergone 9.79 fewer population doublings. Massively parallel sequencing of PCR products amplified from genomic DNA was used to determine relative levels of sgRNA sequences to infer the relative impact of each gene on compound sensitivity. […]
HCT116 cells stably expressing Cas9 were generated by infecting cells with lentiCas9-Blast (Addgene #52962) and selection with 10 μg/mL blasticidin. […] Viable cells were counted at each passage and collected after 21 days. Genomic DNA was extracted using Blood & Cell Culture DNA Maxi kit (QIAGEN #13362), and concentrations were determined using Quant-iT PicoGreen dsDNA assay kits (Invitrogen #P7589). sgRNAs were PCR-amplified using 28 cycles from approximately 650 μg genomic DNA (10 μg DNA/100 μL reaction) using Ex Taq DNA Polymerase (TaKaRa #RR001B), 8 staggered P5 primers, and 1 unique P7 index primer per sample as described in the “Protocol PCR of sgRNAs from gDNA for Illumina sequencing” published by the Broad Institute (51). […] The mapping reads were counted for each sgRNA using SAMtools (v1.9) with the options “-F 2308-q 1”. […]

[1] = system: p53 KO and p21 KO HCT116 cells; assay: Growth competition of p53 or p21 knockout versus control HCT116 cells
Excerpt: To better understand how inhibition of NVL by MM017 leads to cell death, we performed a genome wide pooled CRISPR/Cas9 knockout screen in HCT116 cells using a library of guide RNAs targeting 19,114 genes. Cells were pulsed intermittently with vehicle or MM017 over 21 days, at which point MM017 treated cells had undergone 9.79 fewer population doublings. Massively parallel sequencing of PCR products amplified from genomic DNA was used to determine relative levels of sgRNA sequences to infer the relative impact of each gene on compound sensitivity. […] To confirm whether p53 and p21 are required for the anti-proliferative activity of MM017, we performed a growth competition experiment between cells expressing ZsGreen with either p53 or p21 knockout (KO) and control cells expressing mCherry. Without treatment, the ratio between green and red cells was unchanged over time.

[2] = system: HCT116 control and p53 KO cells; assay: Cell death by loss in membrane permeability, HCT116 control and p53 KO cells; details: five-day treatment

## COCCN1C(=O)c2ccccc2Sc2cc(NC(=O)c3ccoc3)ccc21 [MM017]
HCT116 NVL^R403W cells
  IC50: > 50 µM
HCT116 cells
  fewer population doublings than vehicle: 9.79
[1]
  enrichment of p53 or p21 KO cells in growth competition: dose-dependent enrichment of either p53 or p21 KO cells
[2]
  cell death in p53 KO versus control cells: substantially lower in p53 KO cells
